Assay results taken from patent publication US9952206B2, “Immunoassay for detecting kratom, its constituents and their use” (Randox Laboratories Limited, priority 2013, dated 2018).
≈ marks a conversion by molar mass, not a printed value.

Tested on: antibodies of the invention (antisera generated in response to the immunogen of Example 4)
Test: Competitive chemiluminescent biochip immunoassay, standard curve generation using generated antiserum
Conditions: for IC50 (standard concentration which produces 50% B/B0): biochip-immobilised IgG fraction of antiserum, hapten-HRP conjugate of Example 5; for % CR (percentage cross-reactivity based on 100% specificity to mitragynine): relative to mitragynine = 100%

| SMILES | IC50 (standard concentration which produces 50% B/B0) [ng/mL] | B/Bo (calibrator 0.313 ng/ml) [%] | B/Bo (calibrator 0.625 ng/ml) [%] | B/Bo (calibrator 1.250 ng/ml) [%] | B/Bo (calibrator 2.500 ng/ml) [%] | B/Bo (calibrator 5.000 ng/ml) [%] | B/Bo (calibrator 10.000 ng/ml) [%] | B/Bo (calibrator 20.000 ng/ml) [%] | % CR (percentage cross-reactivity based on 100% specificity to mitragynine) [%] |
| --- | --- | --- | --- | --- | --- | --- | --- | --- | --- |
| CC[C@@H]1CN2CCc3c([nH]c4cccc(OC)c34)[C@H]2C[C@@H]1/C(=C\OC)C(=O)OC (stereo in doubt) [Mitragynine, (E)-2-[(2S,3S,12bS)-3-ethyl-8-methoxy-1,2,3,4,6,7,12,12b-octahydroindolo[2,3-a]quinozilizin-2-yl]-3-methoxy propenoic acid methyl ester] | 1.193 (≈ 2.99 nM) | 75 | 63 | 49 | 37 | 25 | 17 | 11 | 100.00 |
| CCC1CN2CCc3c([nH]c4cccc(O)c34)C2CC1C(=COC)C(=O)OC [8-Desmethylmitragynine, (E)-2-[(2S,3S,12bS)-3-ethyl-8-hydroxy-1,2,3,4,6,7,12,12b-octahydroindolo[2,3-a]quinozilizin-2-yl]-3-methoxy propenoic acid methyl ester] | 1.532 (≈ 3.98 nM) | 74 | 63 | 54 | 42 | 29 | 18 | 13 | 77.87 |
